Several values for one entry are separate records, joined by “and”; a condition that tells them apart may be missing. Identical values can stand only once.
Legend:
HBV DNA [1] = test: HBV DNA in culture supernatants of HBV-infected PHH by qPCR (Examples 15-17); type: cell-based, HBV genotype D; primary human hepatocytes
Procedure: The day PHH seeding date was defined as day 0.
The PHH were infected with 400 HBV GE/cell of D type HBV on day 1.
The test articles were further diluted with the culture medium to the final test concentrations.
All the test articles were further diluted 100 times with the culture medium. The final concentration of DMSO in the culture medium was […].
Four two-way combinations were performed on a 5×5 matrix, in triplicate plates. Transfection reagent was present in all wells.
DNA in the culture supernatants harvested on days 8 was isolated with QIAamp 96 DNA Blood Kit (Qiagen-51162). For each sample, 100 μl of each culture supernatant was used to extract DNA. The DNA was eluted with 180 μl of AE. HBV DNA in the culture supernatants was quantified by quatitative PCR using well-established and commonly used procedures. Percent inhibition of HBV DNA was calculated with the formula below:
% Inh. HBV DNA=[1−value of sample/AVG. value of Medium control]×100.
Results of double combination studies were analyzed using MacSynergy II software (Prichard and Shipman, 1992).

HBV DNA [2] = test: as above; type: cell-based, HBV genotype D; primary human hepatocytes; conditions: Hepatitis B virus, determined in an earlier separate experiment
HBV DNA [3] = test: HBV DNA by branched DNA assay in HepG2.2.15 cells, two-compound combinations (Examples 13-14); type: cell-based, HBV; HepG2.2.15 (human hepatoblastoma); conditions: for Average percent inhibition versus negative control: Cmpd 2 μM: 0.01, 0.0032, 0.001, 0.0003, 0.0001, 0, n = 4; for Additive percent inhibition versus negative control: Compound (2) μM: 0.01, 0.0032, 0.001, 0.0003, 0.0001, 0
Procedure: In vitro combination studies were conducted using the method of Prichard and Shipman (Prichard M N, and Shipman C Jr., Antiviral Research, 1990, 14(4-5), 181-205; and Prichard M N, et. al., MacSynergy II). The HepG2.2.15 cell culture system is a cell line derived from human hepatoblastoma HepG2 cells, which have been stably transfected with the adw2-subtype HBV genome as previously explained in Sells et al. (Proc. Natl. Acad. Sci. U. S. A, 1987. Vol 84:1005-1009). HepG2.2.15 cells secrete Dane-like viral particles, produce HBV DNA, and produce the viral proteins, HBeAg and HBsAg.
Although inhibition of HBV DNA, RNA and proteins can be determined in the presence of these inhibitors, we used the branched DNA assay due to its ability to quantitatively measure the level HBV DNA.
Detection of HBV DNA. The branched DNA assay (bDNA) was used to determine the effect of compound combinations on HBV DNA. HepG2.2.15 (10,000 cells/well) were cultured in DMEM medium plus supplements as described above. The next day, the cells were replenished with fresh medium followed by the addition of Inhibitor A and B, both were dissolved in 100% DMSO. The microtiter cell plates were incubated for a total duration of 6 days at 37° C. without replenishing media or compound. The serial dilutions spanned concentration ranges respective to the EC50 value of each compound. In addition to combination testing of the compounds, both inhibitors A and B were also tested singly.
The level of bDNA present in the inhibitor-treated supernatant wells was measured using a Quantigene 2.0 bDNA assay kit (Affymetrix, Santa Clara, Calif.) with HBV specific custom probe set (genotype D ayw; DF-10739) and manufacturer's instructions after performing a proteinase K digestion in lysis. The plates were read using a Victor luminescence plate reader (PerkinElmer Model 1420 Multilabel counter) and the RLU data generated from each well was calculated as inhibition of the untreated control wells. The data was analyzed using the interpretive guidelines established by Prichard and Shipman combination model using the MacSynergy II program (Prichard M N, Shipman C Jr. Antiviral Research, 1990. Vol 14(4-5):181-205; Prichard M N, Aseltine KR, and Shipman, C. MacSynergy II. University of Michigan 1992) to determine whether the combinations were synergistic, additive or antagonistic using the interpretive guidelines established by Prichard and Shipman as follows: synergy volumes <25 μM2% (log volume <2) at 95% CI=probably insignificant; 25-50 (log volume >2 and <5)=minor but significant 50-100 (log volume >5 and <9)=moderate, may be important in vivo; Over 100 (log volume >9)=strong synergy, probably important in vivo; volumes approaching 1000 (log volume >90)=unusually high, check data. The RLU data from the single compound treated cells were analyzed using XL-Fit module in Microsoft Excel to determine EC50 values using a 4-parameter curve fitting algorithm.

HBsAg = HBsAg in culture supernatants of HBV-infected PHH by ELISA (Examples 15-17); conditions: for AVERAGE % INHIBITION: HBsAg
Procedure: All the test articles were further diluted 100 times with the culture medium. The final concentration of DMSO in the culture medium was 2%.
HBsAg in the culture supernatants harvested on days 8 was measured using the HBsAg/ELISA kit (Autobio) according to the manual. The samples were diluted 4-fold with PBS to get the signal in the range of the standard curve. Percent inhibition of HBsAg was calculated with the following formula:
% Inh. HBsAg=[1−HBsAg quantity of sample/HBV quantity of DMSO control]×100

C=C1[C@H](CO)[C@@H](O)C[C@@H]1n1cnc2c(=O)[nH]c(N)nc21 [ETV, entecavir]
SYNERGY PLOT (99.9%) Bonferroni Adj. 98% (HBV DNA) (HBV DNA [1]; Compound 1 0.00 μg/mL, ETV nM by row: r41 0.07000, r42 0.02300, r43 0.00780, r44 0.00260, r45 0.00086, r46 0.00000): 0 | inhibition at 860 fM (HBV DNA [1]; Hepatitis B virus, HBV DNA, ETV 0.00086 nM alone): -5.71% | inhibition at 2.6 pM (HBV DNA [1]; Hepatitis B virus, HBV DNA, ETV 0.00260 nM alone): 8.16% | inhibition at 23 pM (HBV DNA [1]; Hepatitis B virus, HBV DNA, ETV 0.02300 nM alone): 62.3% | inhibition at 70 pM (HBV DNA [1]; Hepatitis B virus, HBV DNA, ETV 0.07000 nM alone): 85.7% | inhibition at 7.8 pM (HBV DNA [1]; Hepatitis B virus, HBV DNA, ETV […] alone): 24.2% | EC50 (HBV DNA [2]): 0.015 nM | MacSynergy Volume Calculations, 99.99% confidence interval (Bonferroni Adj. 96%) (HBV DNA [3]): 0.00 | Average percent inhibition versus negative control (HBV DNA [3]; ETV 0.0001 μM): −21.2% | Additive percent inhibition versus negative control (HBV DNA [3]; ETV 0.0001 μM): −21.2% | Average percent inhibition versus negative control (HBV DNA [3]; ETV 0.001 μM): 48.98% | Additive percent inhibition versus negative control (HBV DNA [3]; ETV 0.001 μM): 48.98% | Average percent inhibition versus negative control (HBV DNA [3]; ETV 0.1 μM): 85.09% | Additive percent inhibition versus negative control (HBV DNA [3]; ETV 0.1 μM): 85.09% | Average percent inhibition versus negative control (HBV DNA [3]; ETV 1.0E−05 μM): −88.53% | Additive percent inhibition versus negative control (HBV DNA [3]; ETV 1.0E−05 μM): −88.53% | Average percent inhibition versus negative control (HBV DNA [3]; ETV 1.00E−06 μM): −90.87% | Additive percent inhibition versus negative control (HBV DNA [3]; ETV 1.00E−06 μM): −90.87% | Average percent inhibition versus negative control (HBV DNA [3]; ETV 3.16E−06 μM): −90.2% | Additive percent inhibition versus negative control (HBV DNA [3]; ETV 3.16E−06 μM): −90.2% | Average percent inhibition versus negative control (HBV DNA [3]; ETV 3.17E−05 μM): −55.97% | Additive percent inhibition versus negative control (HBV DNA [3]; ETV 3.17E−05 μM): −55.97% | EC50 (HBV DNA [3]; Hepatitis B virus, HepG2.2.15, bDNA quantitation, read-out: Inhibitor A EC50): 3.2 nM | AVERAGE % INHIBITION (HBsAg; ETV 0.00260 nM alone): 4.92% and −1.45% | AVERAGE % INHIBITION (HBsAg; ETV 0.02300 nM alone): 0.19% and −6.78% | EC50 (HBsAg; Hepatitis B virus): > 0.07 nM
